Source: a melting point compilation (Tetko et al.; mined from patent text by program, amines drawn as free bases though some values may be those of a salt)

Row | SMILES | melting point
1 | Fc1cc(F)c(-c2c(Cl)nc3ncnn3c2Cl)c(F)c1 | 125 to 126 °C
2 | CC(=O)OCCC1CC2=C(O1)C(C)=CC(C)(O)C2C (racemic) | 90 to 92 °C
3 | CNC(=S)NCC1CC(c2ccc(Cl)cc2)=NO1 (stereo not given) | 131 to 133 °C
4 | CCCC(NS(=O)(=O)c1ccc(Cl)cc1)C(=O)NN (stereo not given) | 120 °C
5 | O=C1c2ccccc2C(=O)c2sc(-c3ccc([N+](=O)[O-])o3)nc21 | > 300 °C
6 | Cc1cc(C)c(CC(C)CC(C(=O)C(CC(C)Cc2c(C)cc(C)cc2C)N2C(=O)c3ccccc3C2=O)N2C(=O)c3ccccc3C2=O)c(C)c1 (stereo not given) | 131 to 132 °C
7 | O=C(c1ccccc1SSc1ccccc1C(=O)N1CCOCC1)N1CCOCC1 | 103 to 110 °C
8 | CCc1nn2c(c1Oc1cc(Cl)cc(Cl)c1)CN(Cc1ccc(C#N)cc1)CC2 | 149 to 150 °C
9 | C/C(=C\c1ccc(C(=O)O)cc1)c1ccc2c(c1)CC(C)(C)CC(C)(C)C2 | 232 to 235 °C
10 | Cc1c(F)c(F)cc(F)c1C(=O)O | 104 to 105 °C
11 | CC1=Cc2cc(C#N)ccc2OC1(C)C | 55 °C
12 | CCCCCCCCCCCCSC(=O)CS(=O)(=O)Nc1c(OC)cc(OC)cc1OC | 90 to 93 °C
13 | CC(C)(C)C(NC(=O)c1cc(F)cc(F)c1)Nc1c(Nc2cccnc2Cl)c(=O)c1=O (stereo not given) | 215 to 217 °C
14 | COc1cc(C(C)=O)ccc1OCCN1CCC(c2noc3cc(F)ccc23)CC1 | 132 to 134 °C
15 | CCCc1c(C(=O)OCC)c2c3c(ccc2n1C)OC1c2ccc(OC)cc2CCN1C3 (stereo not given) | 150 to 151 °C
16 | O=C1OCCC12Sc1ccccc1C2=O (stereo not given) | 125 to 127 °C
17 | CCOC(=O)C1=C(C)NC(c2sc(C)nc2C)=NC1c1ccc(F)cc1Cl (stereo not given) | 117 to 119 °C
18 | CCC(CC)Oc1nc(C)nc(Nc2c(C)cc(C)cc2C)c1[N+](=O)[O-] | 112 to 113 °C
19 | Cc1cc(NC(=O)C(=O)N2C(C)CCCC2C)cc(C)c1S(=O)(=O)C[N+](=O)[O-] (stereo not given) | 192 to 193 °C
20 | CC(Oc1ncn(-c2ccc(Br)cc2)n1)C(=O)N1CCCC1 (stereo not given) | 144 to 145 °C
21 | Cc1c(NC(=O)c2ccc(OCC3CCOC3)cc2)ccc2cc(CNCC3CCOCC3)cnc12 (stereo not given) | 122 to 123 °C
22 | O=C1OC(=O)c2c1ccc1sc3ccccc3c21 | 248 to 250 °C
23 | Cc1cc(C)c2nc(C)n(Cc3ccc(NCC4CCN(C(C)C)CC4)cc3)c2n1 | 134 to 136 °C
24 | CC(=O)OC(CF)c1ccccc1S(=O)(=O)NC(C)(C)C (stereo not given) | 118 to 119 °C

Row | SMILES | melting point
25 | CC(=O)NC[C@H]1CN(c2ccc(C3=CCN(C=O)CC3)c(F)c2)C(=O)O1 | 148 to 151 °C
26 | CCC1(c2ccccc2)Cc2cc(OC)c(Cl)c(Cl)c2C1=O (stereo not given) | 139 to 141 °C
27 | COC(=O)Nc1cc2c(=O)n(NS(C)(=O)=O)c(=O)[nH]c2cc1C(F)(F)F | 232 to 240 °C
28 | CSC(=C[N+](=O)[O-])NCCSCc1[nH]cnc1C | 147 to 150 °C
29 | Cc1cc(SCN2C(=O)c3ccccc3C2=O)cc(C(C)(C)C)c1O | 114 to 116 °C
30 | CC(=O)c1cccc(-c2cc3c4cc(C)ccc4[nH]c3n(C)c2=O)c1 | 258 to 260 °C
31 | CCc1cc2c(c3c1[nH]c1ccc(O)cc13)C(=O)N(CCN(CC)CC)C2=O | 188 to 189 °C
32 | COC(=O)C=Nc1cc(Cl)ccc1C(=O)O | 201 to 203 °C
33 | O=c1c(-c2cccc(F)c2)coc2c(O)c(O)ccc12 | 230 °C
34 | CC(C)(C)OC(=O)N[C@H](Cc1ccc(Cl)c(Cl)c1)C(=O)N1CCC[C@H]1C(=O)NCC1CCc2nc(N)ncc2C1 (stereo not given in full) | 110 to 113 °C
35 | COC(=O)c1cc(CCCCc2c(N)nc(N)nc2O)cs1 | 185 to 186 °C
36 | COc1c(Cl)ccc(-c2cc(N)c(Cl)c(C(=O)NOC(C)(C)C)n2)c1F | 184 to 187 °C
37 | CC(C)OC(=O)N1CCC(c2nc3cc(-c4ccc(C(N)=O)cc4F)ccc3o2)CC1 | 194 to 197 °C
38 | Nc1ccccc1NCCCN1CCC(n2c(=O)[nH]c3cc(Cl)ccc32)CC1 | 196 °C
39 | Cc1ccc(Cl)cc1N1CN(Cc2ccccc2)CN(C)C1=S | 148 to 149 °C
40 | Cc1nc2c(s1)CN=C(c1ccccc1Cl)c1cc(Cl)ccc1-2 | 162 to 164 °C
41 | O=c1ccc(-c2ccc(-n3ccnc3)nc2)n[nH]1 | 261 to 263 °C
42 | Cc1nc(-c2cc3cc(OCCNC[C@H](O)c4cccc(Cl)c4)ccc3o2)no1 | 88 to 92 °C
43 | CN1Cc2c(-c3nc(CCl)co3)ncn2-c2cccc(Cl)c2C1=O | 249 to 251 °C
44 | Cc1[nH]c(=O)c(C#N)cc1-c1csc(N)n1 | 294 to 296 °C
45 | COC(=O)C1CCCCN1S(N)(=O)=O (stereo not given) | 72 to 74 °C
46 | Cc1cc([N+](=O)[O-])c(C(=O)O)cc1F | 163 to 165 °C
47 | CC(c1ccc(Cl)cc1)N(O)C(N)=O (stereo not given) | 125 to 128 °C
48 | COc1cc2c(cc1OC)C(C)(CCCCl)OCC2 (stereo not given) | 77 to 79 °C

Second part, the molecule after the results:

Row | melting point | SMILES
49 | 245 to 247 °C | NS(=O)(=O)c1cc(C(=O)O)cc([N+](=O)[O-])c1Sc1ccccc1
50 | 130 to 131 °C | c1ccc(-c2ccc(-c3nc(COc4ccc(CCCn5ccnc5)cc4)co3)o2)cc1
51 | 153 to 155 °C | CC=Cc1ccc(CCNS(=O)(=O)c2ccc(Cl)cc2)cc1
52 | 72 to 73 °C | C(=C\c1nc(COc2ccccc2CCCn2cncn2)co1)/c1ccccc1
53 | 116 to 119 °C | CCc1nc2c(cnn2CC)c(NC2CCOCC2)c1CNC(=O)c1cccc(C(=O)NCc2ccc(OC)c(-c3cccc(CN4CCCN(C)CC4)c3)c2)c1
54 | 222 °C | c1ccc(CN2CCC(Cc3nc4ccccc4[nH]3)CC2)cc1
55 | 122 to 125 °C | O=C1CCC(N2C(=O)c3cccc(NC(=O)CCCCCNC(=O)OCc4ccccc4)c3C2=O)C(=O)N1 (stereo not given)
56 | 86 to 90 °C | N#CCc1cccc(C(=O)c2ccc(Cl)cc2)c1
57 | 143 to 144 °C | COc1ccc(S(=O)(=O)Nc2ccccc2NC=O)cc1
58 | 164 to 165 °C | CCOC1=CC2=CCc3cc(C#N)ccc3[C@]2(Cc2ccccc2)CC1
59 | 246 to 248 °C | NS(=O)(=O)c1ccc(NC(=O)Nc2cccc([N+](=O)[O-])c2)cc1
60 | 180 to 182 °C | Cn1cc(-c2cc3cccnc3[nH]2)c2cc(C(=O)NC(C)(CO)CO)ccc21
61 | 37 to 51 °C | COC(=O)CCc1cc2cc(C(=O)c3ccccc3)ccc2n1S(=O)(=O)c1ccccc1
62 | 186 °C | O=C(OCCn1cnc2c(Cl)nc3ccccc3c21)c1ccccc1
63 | 306 °C | c1ccc(-n2c3ccccc3c3cc4c(cc32)c2ccccc2n4-c2ccccc2)cc1
64 | 110 to 111 °C | CCOc1nn(CCc2ccc(OCc3nc(-c4ccccc4)oc3C)cc2)cc1CCC(=O)O
65 | 111 to 112 °C | CCOC(=O)/C(=N/OCc1ccccc1)c1ccc(OCCOc2ccc3ccccc3c2)s1
66 | 267 to 270 °C | Cc1cc(C(=O)Nc2ccc(C(=O)O)cc2)no1
67 | 45 °C | O=CNCc1ccc2[nH]cc(CCN3C(=O)c4ccccc4C3=O)c2c1
68 | 79 to 81 °C | CC(C)Oc1ccc(C(=O)n2nc(Nc3ccc(OCc4ccccc4)cc3)nc2N)cc1
69 | 178 to 180 °C | COC(=O)c1cccc(NC(=S)Nc2cc(C(=O)Nc3ccccc3)ccc2OC)c1
70 | 162 to 163 °C | Cc1c(NC(=O)c2ccc(-c3ccc(F)cc3)c(F)c2)ccc2cc(CN3CCCCCC3)cnc12
